# Values quoted from earlier work in patent publication US20030054020A1, “Method and composition for reducing sebum secretion in mammals” (priority 2001, published 2003).
# Test system: human sebaceous glands
compound,measurement,value
CC1=C(/C=C/C(C)=C/C=C/C(C)=C\C(=O)O)C(C)(C)CCC1 [13-cis-retinoic acid],Reduction of the size of human sebaceous glands,up to 90%
